“Also recorded” adds a separate entry of the source. Where two headings read alike, the source gives them in different places. Marks after values point to notes of the source that are not given here.

Here are results for two compounds from PMC6168621 (Frontiers in Pharmacology, 2018).

The subject of one data set is CD1 mice. Briefly: Cannabinoid-elicited hypothermia (rectal temperature). It is filed as in vivo. How it is done: For in vivo studies, rimonabant was synthesized in the laboratory of Dr. Thomas E. Prisinzano at the University of Kansas School of Pharmacy (Lawrence, KS, United States), and provided to us as a generous gift. AB-PINACA, and its 4OH metabolite were obtained from Cayman Chemical Company (Ann Arbor, MI, United States). All cannabinoids were dissolved in a vehicle consisting of ethanol, emulphor and saline at a ratio of 1:1:18. Injections were administered via the intraperitoneal (IP) route at a constant volume of […]. Rimonabant was administered at a dose of 10 mg/kg, 60 min before injection of AB-PINACA or its 4OH metabolite.
Adult male CD1 mice (Charles River Laboratory, Wilmington, MA, United States) were housed three subjects per cage (15.2 cm × 25.4 cm × 12.7 cm) in a temperature-controlled room in a vivarium accredited by the Association for Assessment and Accreditation of Laboratory Animal Care, and given ad libitum food (Laboratory Rodent Diet no. 5001; PMI Feeds, St. Louis, MO, United States) and water. The vivarium was maintained at 22°C ± 2°C and 45–50% humidity, with lights set to a 12-h light/dark cycle (lights on at 6:00 AM, CST). […] All procedures were carried out in accordance with the Guide for Care and Use of Laboratory Animals as adopted and promulgated by the National Institutes of Health (NIH). The experimental protocol has been approved by the Institutional Animal Care and Use Committee (IACUC) at the University of Arkansas for Medical Sciences (UAMS).
Mice were habituated to handling and weighing prior to initiation of experimental procedures. A digital thermometer (model BAT-12, PhysiTemp, Clifton, NJ, United States) equipped with a Ret-3 mouse probe (model 50314, Stoelting Co., Dale, IL, United States) was lubricated and inserted approximately 2 cm into the rectum. Stable temperatures were obtained within ∼6 s. Rectal temperature data were sampled immediately before injection, and at 10, 30, 60, 120, 240, and 360 min after injection.
Curve-fitting was conducted utilizing GraphPad Prism® v6.0b (GraphPad Software, Inc.; San Diego, CA, United States). Non-linear regression for one-site competition was used to determine the IC50 for competition receptor binding. The Cheng-Prusoff equation ([Cheng and Prusoff, 1973]) was employed to convert the experimental IC50 values obtained from competition receptor binding experiments to Ki values (a quantitative measure of receptor affinity). Curve fitting of concentration-effect curves via non-linear regression was also employed to determine the […] or IC50 (measures of potency) and Emax or Imax (measures of efficacy) for the [^35S]GTPγS and adenylyl cyclase experiments, respectively. All dissociation constants and measurements of potency were converted to pKi, pEC50, or pIC50 values by taking the negative log of each value so that parametric tests could be used for statistical comparisons. A one-way ANOVA, followed by Tukey’s Multiple Comparison post hoc test, was used to determine statistical significance (P < 0.05). For animal studies, temperature data are shown as mean values (±SEM) for groups of subjects at each drug dose and time point. For statistical analyses, only the highest dose of AB-PINACA or its 4OH- metabolite (with and without rimonabant pretreatment) were considered. The lowest temperatures recorded for each subject within each group (regardless of when after drug administration it occurred) were compared to vehicle data using a one-way ANOVA and Tukey’s HSD post hoc test. Significance was judged at P < 0.05.

Data set [1] has as its target T1, hCB1Rs (Homo sapiens, UniProt P21554).
T1 construct: host or cells: CHO-K1 (CHO-hCB1)
Briefly: cell-based. It is filed as cell-based.

Data set [2] has as its target T1, hCB1Rs. Briefly: biochemical. The class given is binding. The conditions noted are these: for Ki: [^3H]CP-55,940 binding, CHO-hCB1 membranes.
For data set [3], the system named is human liver microsomes (HLMs). Kind of data set: Glucuronidation of AB-PINACA and JWH-018 metabolites in HLMs. The class given is in vitro ADME. The conditions noted are these: 90 min. How it is done:
A typical incubation mixture (30 μl of total volume) contained 100 mM Tris-HCl (pH 7.4), 5 mM MgCl2, 3 mM UDPGA, 80 μg/ml alamethicin, 50 μg HLMs, 5 mM saccharolactone, and 50 μM 4OH- or 5OH-AB-PINACA. […] After incubation at 37°C for 90 min, reactions were terminated by the addition of 30 μl cold ethanol. Following removal of the protein by centrifugation at 12,000 × g for 10 min, a 5-μl portion of the sample was subjected to UPLC. All incubations were performed in triplicate.
Parent compounds and glucuronidated metabolites were identified by the ACQUITY UPLC System with a UV detector (Milford, MA, United States). […] The column was re-equilibrated at initial conditions for 2.5 min between runs. The elution was monitored at 300 nm. The retention times of 4OH-AB-PINACA, 5OH-AB-PINACA, 4OH-AB-PINACA glucuronide, and JWH-018-M2 were 3.989, 3.994, 3.646, and 5.391 min.
FIGURE 4 Glucuronidation of 4OH- and 5OH-AB-PINACA in human liver microsomes (HLMs). 4OH-AB-PINACA (A) and 5OH-AB-PINACA (B) were incubated for 90 min with HLMs in the presence or absence of UDPGA. The terminated reaction mixtures were subjected to the UPLC analysis and the eluent was monitor with a UV detector at 300 nm and chromatograms presented. (C) The peak area of the glucuronide was estimated from the triplicate determinations. The data are presented as mean value ± SD. ND, not detected. (D) Comparison of glucuronidation of JWH-018-M2 and 4OH-AB-PINACA with HLMs. JWH-018-M2 and 4OH-AB-PINACA (5 μM) were incubated for 90 min with HLMs in the presence or absence of UDPGA. The terminated reaction mixtures were subjected to the UPLC analysis and the eluent was monitor with a UV detector at 300 nm. The remaining amount of the substrates was quantified by using standard curves of JWH-018-M2 and 4OH-AB-PINACA. The data was shown as mean value ± SD. ^∗P < 0.001. TEXT PRINTED IN THE PICTURE: (C) 5OH-AB-PINACA: Peak area (μV*sec): ND

Data set [4] addresses T1, hCB1Rs. Kind of data set: biochemical. The following applies: for Emax: read-out: EMAX, [^35S]GTPγS binding (maximal G-protein activation). (Binding of GTPγS marks nucleotide exchange on a G protein.)
Data set [5] has as its target T1, hCB1Rs. The class given is cell-based.

T1 sequence (P21554 whole entry): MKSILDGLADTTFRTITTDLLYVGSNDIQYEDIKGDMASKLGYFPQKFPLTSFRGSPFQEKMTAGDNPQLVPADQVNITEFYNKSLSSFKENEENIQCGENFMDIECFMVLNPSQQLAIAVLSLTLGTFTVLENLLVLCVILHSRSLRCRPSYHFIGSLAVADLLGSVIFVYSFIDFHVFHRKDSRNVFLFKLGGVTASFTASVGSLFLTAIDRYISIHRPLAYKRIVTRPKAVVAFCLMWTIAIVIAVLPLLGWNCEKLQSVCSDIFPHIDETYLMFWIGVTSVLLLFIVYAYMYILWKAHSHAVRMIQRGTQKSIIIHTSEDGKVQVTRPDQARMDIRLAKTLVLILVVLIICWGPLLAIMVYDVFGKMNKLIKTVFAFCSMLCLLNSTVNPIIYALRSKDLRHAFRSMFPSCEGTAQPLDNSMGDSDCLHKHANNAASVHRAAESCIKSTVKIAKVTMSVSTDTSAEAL

Regarding `CC(O)CCCn1nc(C(=O)NC(C(N)=O)C(C)C)c2ccccc21` (stereo not drawn) [4OH-AB-PINACA], the “Lowest rectal temperature, hypothermic effect vs vehicle” value with CD1 mice (100.0 mg/kg i.p., P < 0.05) is recorded as “significantly different”. Moreover, the “Lowest rectal temperature, drug alone vs rimonabant pretreatment” value with CD1 mice (100.0 mg/kg i.p., rimonabant 10.0 mg/kg 60 min before, P < 0.05) is given as “significantly different”. Also, the “Dose required for a similar level of hypothermia relative to AB-PINACA” value in the data set with CD1 mice (100 mg/kg vs 10 mg/kg) is around 10 fold. Also, in the data set with CD1 mice (30.0 and 100.0 mg/kg, i.p.), the “Effect on rectal temperature” value is “dose- and time-dependent hypothermic effects”. The “IMAX, cAMP accumulation (maximal adenylyl cyclase inhibition)” value on hCB1Rs [1] (intact CHO-hCB1 cells, 10 μM forskolin, 15 min) is listed as 87.0 ± 2.9^a %. Also, the IC50 is 141 nM on hCB1Rs [1] (intact CHO-hCB1 cells, 10 μM forskolin, 15 min, read-out: IC50, cAMP accumulation (adenylyl cyclase inhibition)) and 129 nM at hCB1Rs [1] (intact CHO-hCB1 cells, 10 μM forskolin, 15 min, read-out: pIC50, cAMP accumulation (converted)). Further, on hCB1Rs [2] (159 nM vs 4 nM), the “hCB1R affinity relative to the parent compound AB-PINACA (fold less)” value is given as “approximately 40 fold”. In addition, the Ki (in general, the equilibrium dissociation constant of an inhibitor or competing ligand from its target) at hCB1Rs [2] (Ki, 0.2 nM [^3H]CP-55,940, Cheng-Prusoff) is 159 nM; at hCB1Rs [2] (pKi, 0.2 nM [^3H]CP-55,940, mean ± SEM) it was 151 nM. Further, the “Remaining amount of substrate in the presence vs absence of UDPGA” value in data set [3] (5 μM substrate, HLMs, Figure 4D) is recorded as “such disappearance of substrate is not observed”. Moreover, the “Glucuronide formation (UPLC peak)” value in data set [3] (50 μM substrate, HLMs with UDPGA, 37°C) was “unique peak is observed; also recorded: slightly glucuronidated”. Further, the Emax (usually the greatest response seen or fitted, relative to the assay's reference) on hCB1Rs [4] (CHO-hCB1 membranes, mean ± SEM) is 92.6 ± 13.4%. In addition, the EC50 is 813 nM on hCB1Rs [4] (CHO-hCB1 membranes, mean ± SEM, read-out: pEC50, [^35S]GTPγS binding (converted)) and 952 nM at hCB1Rs [4] (CHO-hCB1 membranes, read-out: EC50, [^35S]GTPγS binding).

`CCCCCCC(C)(C)c1ccc([C@@H]2C[C@H](O)CC[C@H]2CCCO)c(O)c1` [CP-55,940, reference compound]: the “Efficacy (Imax) of CP-55,940 to inhibit adenylyl cyclase” value at hCB1Rs [5] was determined as 86.7 ± 6.4%. Further, at hCB1Rs [1], the “IMAX, cAMP accumulation (maximal adenylyl cyclase inhibition)” value was 86.7 ± 6.4^a %. Further, the Emax on hCB1Rs [4] is 64 ± 3.8%.
